According to paper PMC9007951, “Systematically evaluating DOTATATE and FDG as PET immuno-imaging tracers of cardiovascular inflammation” (Scientific Reports, 2022):
Where two headings read alike, the source gives them in different places. Blank lines part the entries; values can stand above or below the compound they belong to.

What was measured:
[1] = mice; cited from earlier work
Excerpt: This feature is important when performing in vivo imaging and especially in the vasculature, whose signal can be easily contaminated by the blood pool because of partial volume errors. […] We further used the combination of in ...

[2] = Organ biodistribution of [^68Ga]Ga-DOTATATE by ex vivo gamma counting; format: in vivo, New Zealand White rabbits; details: male, New Zealand White, rabbit, 190 MBq, total radioactivity, 200 min after tracer injection, median (IQR)
Description: Adopting a translational approach, the rabbit studies were performed with the [^68Ga]Ga-labeled tracer, which is already being used in the clinic. [^68Ga]Ga-DOTATATE was purchased from Advanced Accelerator Applications (AAA, Millburn, NJ, USA). To determine its pharmacokinetics, three atherosclerotic rabbits and two healthy controls were injected with approximately 190 MBq of [^68Ga]Ga-DOTATATE. Venous blood was sampled at 1, 5, 10, 15, 20, 30, 60, 120, 180, 240 and 300 min after injection through the ear vein. Samples were weighed and gamma counted. Blood half-life data were fitted using a two-phase decay non-linear regression using GraphPad Prism v8.4.3 (Supplementary Table S1). To investigate the tracer blood distribution, blood samples were centrifuged at 2000 g for 15 min at 4 °C to determine the radioactivity concentration in the plasma and cellular fractions. To analyze [^68Ga]Ga-DOTATATE biodistribution, all rabbits were euthanized after the last imaging time-point using an injection of pentobarbital 100 mg/kg and exsanguination of the portal vein. Rabbits were extensively perfused with 1000 mL of saline. Following, tissues (blood, heart, aorta, liver, kidney, skeletal muscle, small and large intestine, fat, stomach, pancreas and bladder) were harvested, weighed and gamma counted.

SMILES: OC[C@H]1OC(O)[C@H]([18F])[C@@H](O)[C@@H]1O (stereo partly shown) [[^18F]F-FDG, [^18F]F-fluorodeoxyglucose]
blood half-life [1]: 5.1 min

tissue uptake at 200 min ([2]; abdominal aorta, iv, male athero4mo rabbits, N = 9, read-out: Tissue radioactivity, abdominal aorta): 0.017 %ID/g | tissue uptake at 200 min ([2]; abdominal aorta, iv, male control rabbits, N = 6, read-out: Tissue radioactivity, abdominal aorta): 0.006 %ID/g | tissue uptake at 200 min ([2]; adrenal gland, iv, male athero4mo rabbits, N = 9, read-out: Tissue radioactivity, adrenal gland): 0.012 %ID/g | tissue uptake at 200 min ([2]; adrenal gland, iv, male control rabbits, N = 6, read-out: Tissue radioactivity, adrenal gland): 0.003 %ID/g | tissue uptake at 200 min ([2]; bladder, intravenous, male athero4mo rabbits, N = 9, read-out: Tissue radioactivity, bladder): 0.075 %ID/g | tissue uptake at 200 min ([2]; bladder, intravenous, male control rabbits, N = 6, read-out: Tissue radioactivity, bladder): 0.053 %ID/g | tissue uptake at 200 min ([2]; bone marrow, intravenous, male athero4mo rabbits, N = 9, read-out: Tissue radioactivity, bone marrow): 0.006 %ID/g | tissue uptake at 200 min ([2]; bone marrow, intravenous, male control rabbits, N = 6, read-out: Tissue radioactivity, bone marrow): 0.003 %ID/g | tissue uptake at 200 min ([2]; fat, intravenous, male athero4mo rabbits, N = 9, read-out: Tissue radioactivity, fat): 0.002 %ID/g | tissue uptake at 200 min ([2]; heart, iv, male athero4mo rabbits, N = 9, read-out: Tissue radioactivity, heart): 0.006 %ID/g | tissue uptake at 200 min ([2]; heart, iv, male control rabbits, N = 6, read-out: Tissue radioactivity, heart): 0.003 %ID/g | tissue uptake at 200 min ([2]; kidneys, iv, male athero4mo rabbits, N = 9, read-out: Tissue radioactivity, kidneys): 0.157 %ID/g | tissue uptake at 200 min ([2]; kidneys, iv, male control rabbits, N = 6, read-out: Tissue radioactivity, kidneys): 0.128 %ID/g | tissue uptake at 200 min ([2]; large intestine, iv, male athero4mo rabbits, N = 9, read-out: Tissue radioactivity, large intestine): 0.01 %ID/g | tissue uptake at 200 min ([2]; large intestine, iv, male control rabbits, N = 6, read-out: Tissue radioactivity, large intestine): 0.005 %ID/g | tissue uptake at 200 min ([2]; liver, intravenous, male athero4mo rabbits, N = 9, read-out: Tissue radioactivity, liver): 0.006 %ID/g | tissue uptake at 200 min ([2]; lungs, iv, male athero4mo rabbits, N = 9, read-out: Tissue radioactivity, lungs): 0.015 %ID/g | tissue uptake at 200 min ([2]; lungs, iv, male control rabbits, N = 6, read-out: Tissue radioactivity, lungs): 0.005 %ID/g | tissue uptake at 200 min ([2]; lymph node, iv, male athero4mo rabbits, N = 9, read-out: Tissue radioactivity, lymph node): 0.013 %ID/g | tissue uptake at 200 min ([2]; lymph node, iv, male control rabbits, N = 6, read-out: Tissue radioactivity, lymph node): 0.005 %ID/g | tissue uptake at 200 min ([2]; muscle, iv, male athero4mo rabbits, N = 9, read-out: Tissue radioactivity, muscle): 0.003 %ID/g | tissue uptake at 200 min ([2]; muscle, iv, male control rabbits, N = 6, read-out: Tissue radioactivity, muscle): 0.001 %ID/g | tissue uptake at 200 min ([2]; pancreas, intravenous, male control rabbits, N = 6, read-out: Tissue radioactivity, pancreas): 0.005 %ID/g | tissue uptake at 200 min ([2]; small intestine, iv, male athero4mo rabbits, N = 9, read-out: Tissue radioactivity, small intestine): 0.021 %ID/g | tissue uptake at 200 min ([2]; small intestine, iv, male control rabbits, N = 6, read-out: Tissue radioactivity, small intestine): 0.025 %ID/g | tissue uptake at 200 min ([2]; spleen, intravenous, male athero4mo rabbits, N = 9, read-out: Tissue radioactivity, spleen): 0.012 %ID/g | tissue uptake at 200 min ([2]; spleen, intravenous, male control rabbits, N = 6, read-out: Tissue radioactivity, spleen): 0.015 %ID/g | tissue uptake at 200 min ([2]; stomach, intravenous, male athero4mo rabbits, N = 9, read-out: Tissue radioactivity, stomach): 0.053 %ID/g | tissue uptake at 200 min ([2]; thoracic aorta, iv, male athero4mo rabbits, N = 9, read-out: Tissue radioactivity, thoracic aorta): 0.015 %ID/g | tissue uptake at 200 min ([2]; thoracic aorta, iv, male control rabbits, N = 6, read-out: Tissue radioactivity, thoracic aorta): 0.004 %ID/g
SMILES: C[C@@H](O)[C@H](NC(=O)[C@@H]1CSSC[C@H](NC(=O)[C@@H](Cc2ccccc2)NC(=O)CN2CCN(CC(=O)O)CCN(CC(=O)O)CCN(CC(=O)O)CC2)C(=O)N[C@@H](Cc2ccc(O)cc2)C(=O)N[C@H](Cc2c[nH]c3ccccc23)C(=O)N[C@@H](CCCCN)C(=O)N[C@@H]([C@@H](C)O)C(=O)N1)C(=O)O [[^68Ga]Ga-DOTATATE, metal not drawn]
